Series [1] relates to Influenza A virus. The series is described as follows: Antiviral activity against […] influenza A H5N1 pseudotyped virus infected in A549 cells assessed as inhibition of viral entry incubated for 48 hrs by measuring luciferase activity by Neolite reporter gene assay. Conditions: H5N1, A549, 48 h. Type of series: functional, organism-based. (In a reporter assay the amount or activity of a reporter protein is the signal.)

Series [2] is described as follows: Cytotoxicity against human A549 cells incubated for 48 hrs by celltiter-glo luminescent cell viability assay. Type of series: toxicity, cell-based.
Series [3] is described as follows: Selectivity index, ratio of CC50 for human A549 cells to IC50 for VSV pseudotyped virus infected in A549 cells. As to conditions: read-out: Ratio CC50/IC50. Type of series: toxicity, cell-based.
Series [4] is described as follows: Selectivity index, ratio of CC50 for human A549 cells to IC50 for group 2 influenza A H7N1 pseudotyped virus infected in A549 cells. Format: toxicity, cell-based. Conditions: read-out: Ratio CC50/IC50.
Series [5] concerns Vesicular stomatitis virus. In words: Antiviral activity against VSV pseudotyped virus infected in A549 cells assessed as inhibition of viral entry incubated for 48 hrs by measuring luciferase activity by Neolite reporter gene assay. Format: functional, organism-based. As to conditions: A549, 48 h.
Series [6] concerns Influenza A virus. In words: Antiviral activity against group 2 influenza A H7N1 pseudotyped virus infected in A549 cells assessed as inhibition of viral entry incubated for 48 hrs by measuring luciferase activity by Neolite reporter gene assay. Format: functional, organism-based. Conditions: H7N1, A549, 48 h.
The nature of series [7]: Selectivity index, ratio of CC50 for human A549 cells to IC50 for […] influenza A H5N1 pseudotyped virus infected in A549 cells. Type of series: toxicity, cell-based. Conditions: read-out: Ratio CC50/IC50.
Series [8] has as its system Influenza A virus. The series is described as follows: Antiviral activity against group 2 influenza A virus H3N2 (A/Hong Kong-11/1968) infected in MDCK cells infected with supernatant of compound treated virus-producing human A549 cells assessed as reduction in viral titer at 1 to 10 uM treated for 48 hrs with virus-producing human A549 cells followed by MDCK cells infection for 48 hrs by crystal violet staining based plaque assay. Format: functional, organism-based. Conditions: dose 1-10 µM, time 96.0 hrs.

The test system of series [9] is Influenza A virus. The series is described as follows: Antiviral activity against group 2 influenza A virus H3N2 (A/Victoria/361/2011) infected in MDCK cells infected with supernatant of compound treated virus-producing human A549 cells assessed as reduction in viral titer at 1 to 10 uM treated for 48 hrs with virus-producing human A549 cells followed by MDCK cells infection for 48 hrs by crystal violet staining based plaque assay. Format: functional, organism-based. As to conditions: dose 1-10 µM, time 96.0 hrs.

In series [10] the test system is Influenza A virus. In words: Antiviral activity against group 2 influenza A virus H7N1 wild type. Format: functional, organism-based.

Molecules are shown by their SMILES. Calls of active or inactive are those of the source. No cut-off for these calls is given here.

As usually defined, the IC50 is the concentration that inhibits the measured activity by half. The CC50 is the concentration giving 50% cytotoxicity. Low readings indicate harm at low concentration, high ones better tolerance by the cells. Take `COc1ccccc1-c1nc2ncccn2c1NC1CCCCC1`: the IC50 is > 100 µM in the series on Influenza A virus [1], > 100 µM in series [5] and 2.3 µM in the series with Influenza A virus [6]. In [2], the CC50 at 48 h was > 100 µM. Besides, the selectivity ratio in series [3] is < 1; in series [4] it was > 43; in [7], < 1.
Consider `Cc1cc(Br)ccc1-c1nc2ncccn2c1Nc1ccccc1`, for which the IC50 with Influenza A virus [1] is > 100 µM; in [5], 100 µM; in the series on Influenza A virus [6], 2.2 µM. Further, the CC50 at 48 h in [2] amounted to 40 µM. In addition, the selectivity ratio in [3] was 1; in series [4] it was 18; in [7], < 1.
On to `FC(F)(F)c1cc(Br)ccc1-c1nc2ncccn2c1NC1CCCCC1`, for which the IC50 with Influenza A virus [1] turned out to be 20 µM; in [5], 24 µM; with Influenza A virus [6], 1.4 µM. The CC50 at 48 h in series [2] worked out at 25 µM. Also, the selectivity ratio in [3] was found to be 1; in series [4], 18; in [7] it was 1. In addition, the result with Influenza A virus [8] and with Influenza A virus [9] was Active.
As for `COCCCCOc1ccc(-c2nc3ncccn3c2NC2CCCCC2)cc1`, the IC50 worked out at 92 µM with Influenza A virus [1], 40 µM in series [5] and 0.25 µM in the series on Influenza A virus [6]. This compound gave a CC50 at 48 h in series [2] of 100 µM. Besides, the selectivity ratio turned out to be 2 in series [3], 400 in series [4] and 1 in series [7]. Moreover, the result with Influenza A virus [8] and in the series with Influenza A virus [9] was Active.
As to `Brc1ccc(-c2nc3ncccn3c2NC2CCCCC2)c(CN2CCOCC2)c1`, the IC50 is 32 µM in the series on Influenza A virus [1], 60 µM in series [5] and 9.9 µM in the series with Influenza A virus [6]. Besides, in [2], it took 54 µM to reach half-maximal cytotoxicity (CC50 at 48 h). The selectivity ratio is < 1 in [3], 5 in [4] and > 1 in series [7].
For the compound `Clc1ccc(-c2nc3ncccn3c2NC2CCCCC2)cc1`, the values for the IC50 (in the series on Influenza A virus [1]; in series [5]; with Influenza A virus [6]) were > 100 µM, 36 µM and 0.15 µM, respectively. Further, the CC50 at 48 h in series [2] is > 100 µM. Also, the figures for the selectivity ratio in series [3], in [4] and in series [7] were > 2, > 670 and > 1, respectively. The outcome in the series with Influenza A virus [8] and in the series on Influenza A virus [9] was Active.
In the case of `COc1ccc(-c2nc3ncccn3c2NC2CCCCC2)cc1`, the IC50 in the series with Influenza A virus [1] is > 100 µM; in series [5], 100 µM; with Influenza A virus [6], 0.037 µM; in the series on Influenza A virus [10], 0.019 µM. Further, the CC50 at 48 h in series [2] was > 100 µM. The result with Influenza A virus [8] and with Influenza A virus [9] was Active.

Values taken from ChEMBL document CHEMBL5108080 (J Med Chem, 2022).
